Source: publication PMC11489226 (Archives of Toxicology, 2024)

Experiments:
CYP3A4 = CYP3A4 (Homo sapiens, UniProt P08684); test: Metabolism in transgenic HEK293 cells expressing CYP3A4; conditions: 20 µM parent PCB, 24 h, supernatant
Description: (§1) For the generation of transgenic cell lines, we used semi-adherent HEK293 cells (DSMZ, ACC305, human embryonic kidney cells) which were cultured on a daily basis in DMEM medium supplemented with 10% (FCS) and 1% penicillin/streptomycin. In a first step CYP1A2, CYP2C8, CYP2C9, CYP3A4, CYP2A6, and CYP2E1 cDNA were cloned into the plasmid pcDNATM3.1/V5-His TOPO® using human liver RNA as a template and using the following primers: CYP1A2 for5′-[…]-3′, CYP1A2 rev 5′-[…]-3′; CYP2C8 for 5′-[…]-3′, CYP2C8 rev 5′-[…]-3′; CYP2C9 for 5′-[…]-3′, CYP2C9 rev 5′-[…]-3′; CYP3A4 for 5′-[…]-3′, CYP3A4 rev 5′-[…]-3′, CYP2A6 for 5′-[…]-3′, CYP2A6 rev 5′-[…]-3′; CYP2E1 for 5′-[…]-3′, CYP2E1 rev 5′-[…]-3′. Final constructs were verified with Sanger DNA sequencing and restriction digestion. For transfection, 3 × 10^6 HEK293 cells were pre-incubated in a 10 cm dish in DMEM medium with 10% FCS, but without antibiotics, for 18 to 24 h. When the cells reached approximately 70% confluency, they were transfected using TransIT-LT1 transfection reagent (Biozol, Eiching, Germany). The TransIT-LT1 reagent was warmed to room temperature and vortexed. 1.63 mL Opti-MEM, 16.25 µL plasmid DNA (1 µg/µL), and 48.75 µL TransIT-LT1 reagent were mixed and incubated for 15 to 30 min. The mixture was then added dropwise to the medium of the cells, and the cells were incubated again at 37 °C and 5% CO2. After 24 h, the medium was replaced with standard medium and geneticin was added for selection (1 mg/mL). Cells were selected for 6–8 weeks in bulk culture, and single cell clones were obtained subsequently by limiting dilution. Each clone was checked for insertion by PCR using genomic DNA as a template.
(§2) Parallel samples were run without the addition of PCBs. At a confluence of 80%, PCBs (20 μM each, dissolved in ethanol) were added and cells were incubated for 24 h before harvest of supernatants. Supernatants were diluted 1:2 with 80 μL acetate buffer 0.1 M (pH = 5.3). 100 μL of this dilution were further incubated with 100 μL of ammonium acetate buffer 0.1 M (pH = 5.3) and 5 μL of β-Glucuronidase/Arylsulfatase enzyme overnight in a drying oven at 37 °C for enzymatic hydrolysis to release conjugated compounds. 50 μL of a mix of internal standards (10 ng/mL) and 600 μL of methanol were added to the samples, then mixed by vortexing for 1 min and centrifuged for 10 min at 3400g. The individual supernatants were transferred to glass LC vials and evaporated to approximately 50 μL at 45 °C under a gentle stream of nitrogen. Finally, 0.1 mol/ L ammonium acetate buffer was added to a final volume of 100 μL and then transferred to an insert for analysis.
HEK293 cells overexpressing the respective CYP enzymes were seeded onto 6-well plates and were treated with or without 10 µM of the respective probe drug in DMEM medium for 24 hours at 37 °C and 5 % CO2. After incubation 200 µL DMEM were collected, cells were washed with PBS and adherent cells were lysed in 500 µL methanol for 20 minutes. Analytes were measured by LC-MS/MS either in methanol cell lysates or in DMEM supernatant.
50 µL of DMEM samples were protein precipitated by adding 200 µL of methanol and were centrifuged for 20 min, 17,000 g and 4°C. Supernatants were diluted in water or 40 % methanol according to dilution factor. Methanol cell lysates were diluted ½ with water and centrifuged for 20 min, 17,000 g and 4°C. 5 µL of the processed samples were injected for LC-MS analysis.

CYP2C8 = biological target: T1, CYP2C8 (Homo sapiens, UniProt P10632); test: Metabolism in transgenic HEK293 cells expressing CYP2C8; type: in vitro ADME; conditions: 20 µM parent PCB, 24 h, supernatant
T1 construct: V5-His (vector-encoded) (C); expressed in transfected cells
T1 sequence (P10632 1-490): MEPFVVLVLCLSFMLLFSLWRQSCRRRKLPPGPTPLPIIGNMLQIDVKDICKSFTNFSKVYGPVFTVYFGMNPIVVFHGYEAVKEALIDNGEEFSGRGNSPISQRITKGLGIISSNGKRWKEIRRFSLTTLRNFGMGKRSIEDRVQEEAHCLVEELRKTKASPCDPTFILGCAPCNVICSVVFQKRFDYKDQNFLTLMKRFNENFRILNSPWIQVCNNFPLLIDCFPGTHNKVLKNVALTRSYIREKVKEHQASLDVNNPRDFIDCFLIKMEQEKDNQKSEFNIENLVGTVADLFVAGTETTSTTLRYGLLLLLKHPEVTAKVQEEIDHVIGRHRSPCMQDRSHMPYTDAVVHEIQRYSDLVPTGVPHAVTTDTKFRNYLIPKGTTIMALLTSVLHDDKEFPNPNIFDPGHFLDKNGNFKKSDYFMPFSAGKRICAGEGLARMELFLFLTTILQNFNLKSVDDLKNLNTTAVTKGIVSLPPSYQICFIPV
Description: as §1
as §2, with “analysis. […]” for “analysis.”

Measured: Quantification of metabolites generated from PCB28, 52, and 101

Sequence of CYP3A4 (P08684 whole entry): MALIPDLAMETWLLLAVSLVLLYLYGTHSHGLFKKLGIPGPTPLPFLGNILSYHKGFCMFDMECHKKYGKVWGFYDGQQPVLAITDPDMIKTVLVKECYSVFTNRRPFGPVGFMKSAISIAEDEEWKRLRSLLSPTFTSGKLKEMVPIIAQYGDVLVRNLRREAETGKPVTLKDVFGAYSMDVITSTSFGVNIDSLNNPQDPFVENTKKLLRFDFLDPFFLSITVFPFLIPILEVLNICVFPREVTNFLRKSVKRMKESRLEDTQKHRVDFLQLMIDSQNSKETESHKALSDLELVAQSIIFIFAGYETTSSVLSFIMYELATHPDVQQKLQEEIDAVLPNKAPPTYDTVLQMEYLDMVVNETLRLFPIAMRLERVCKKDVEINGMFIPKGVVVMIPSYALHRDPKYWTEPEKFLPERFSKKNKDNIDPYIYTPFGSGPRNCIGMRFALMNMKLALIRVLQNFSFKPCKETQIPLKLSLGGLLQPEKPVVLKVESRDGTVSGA

Oc1cc(Cl)c(-c2ccc(Cl)cc2)cc1Cl [4-OHCB31, 2,4′,5-trichloro-4-biphenylol]
<LOQ: CYP3A4; CYP3A4 Clone B4 | CYP3A4; CYP3A4 Clone D10 | CYP3A4; CYP3A4 Clone E6 | CYP2C8; CYP2C8 Clone A3 | CYP2C8; CYP2C8 Clone D8 | CYP2C8; CYP2C8 Clone D9

Oc1cc(-c2ccc(Cl)cc2)c(Cl)cc1Cl [5-OHCB28, 2,4,4′-trichloro-5-biphenylol]
<LOQ: CYP3A4; CYP3A4 Clone B4 | CYP3A4; CYP3A4 Clone D10 | CYP3A4; CYP3A4 Clone E6 | CYP2C8; CYP2C8 Clone A3 | CYP2C8; CYP2C8 Clone D8 | CYP2C8; CYP2C8 Clone D9
